These results are taken from publication PMC9973354 (mBio, 2022).

Experiment [1] deals with PA14 ΔfpvA ΔfpvB ΔfiuA ΔfoxA pHERD20T. Put plainly: Growth of quadruple mutant with empty vector. The format is cell-based, Pseudomonas aeruginosa. The following applies: 10:90 + 2% arabinose. How it is done:
Site-directed mutagenesis was used to confirm the docking predictions and to define the molecular determinants for ligand uptake through FpvB (Fig. 4C). We generated 17 single amino acid substitutions in FpvB and expressed each of them in trans in the quadruple ΔfpvA ΔfpvB ΔfiuA ΔfoxA mutant. Their ability to complement growth of the mutant in the presence of ferrichrome and ferrioxamine B and to restore TS susceptibility was assessed. […] The mutant transporters were tagged with a C-terminal FLAG tag to evaluate expression levels. FLAG-tagged FpvB mutants had WT levels of expression except for Y216T and W347V, which were expressed at 140% and 25% of WT, respectively.
The ΔfpvA ΔfpvB ΔfiuA ΔfoxA mutant was complemented with WT fpvA, fpvB, fiuA, and foxA in trans as controls (Fig. 4E).
MIC assays were conducted as previously described ([13], [14]). Overnight cultures were grown in LB from a glycerol stock at 37°C with shaking (200 rpm). Subcultures in 10:90 (1:100 dilution) were cultured for 4 h. Cells were adjusted to an optical density at 600 nm (OD600) of 0.1/500 in 10:90. All compounds were serially diluted 2-fold in dimethyl sulfoxide (DMSO) or H2O at 75× the final concentration. […] The next day, the OD600 was determined with a plate reader (Thermo Scientific) and normalized to percent of growth of the vehicle control after subtracting the OD600 from blank media.

In experiment [2] the target is T1, FpvB R648C (Pseudomonas aeruginosa, UniProt A0A0H2ZFZ5, R648C).
T1 sequence (A0A0H2ZFZ5 23-802 R648C): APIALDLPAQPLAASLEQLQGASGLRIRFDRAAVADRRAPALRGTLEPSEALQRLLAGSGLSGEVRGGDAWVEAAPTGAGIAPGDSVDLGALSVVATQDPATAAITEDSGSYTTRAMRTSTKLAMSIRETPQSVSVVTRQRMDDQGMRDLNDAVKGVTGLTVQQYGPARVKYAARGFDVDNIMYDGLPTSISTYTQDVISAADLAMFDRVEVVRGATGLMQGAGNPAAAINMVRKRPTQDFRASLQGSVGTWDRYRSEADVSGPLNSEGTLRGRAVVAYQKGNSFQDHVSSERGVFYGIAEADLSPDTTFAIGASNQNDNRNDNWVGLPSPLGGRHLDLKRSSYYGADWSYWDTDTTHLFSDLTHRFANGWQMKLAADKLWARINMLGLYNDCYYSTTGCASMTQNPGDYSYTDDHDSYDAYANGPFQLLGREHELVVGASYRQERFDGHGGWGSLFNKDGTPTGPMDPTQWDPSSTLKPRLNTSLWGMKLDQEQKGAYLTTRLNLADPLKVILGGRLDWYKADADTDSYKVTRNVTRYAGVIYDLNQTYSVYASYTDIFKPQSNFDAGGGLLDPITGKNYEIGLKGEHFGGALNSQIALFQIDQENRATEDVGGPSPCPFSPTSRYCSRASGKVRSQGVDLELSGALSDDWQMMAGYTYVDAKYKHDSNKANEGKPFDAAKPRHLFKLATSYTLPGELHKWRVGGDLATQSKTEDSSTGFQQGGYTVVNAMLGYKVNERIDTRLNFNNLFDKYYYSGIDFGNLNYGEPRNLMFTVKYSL
Nature of the experiment: Whole-cell fluorescence quenching, FpvB R648C in quadruple mutant. The format is binding. Particulars: FpvB R648C in quadruple mutant, two-site model. How it is done: Quenching assays with the two xenosiderophores were repeated for the quadruple TBDT mutant expressing WT FpvB, FpvB R191A R648C, or W347V R648C.
Cells were cultured overnight in LB with carbenicillin (200 μg/mL) at 37°C with shaking at 200 rpm. Cells were subcultured (1:200 dilution) in 10:90 plus 2% arabinose for 4 h without carbenicillin at 37°C with shaking at 200 rpm. Cells were harvested by centrifugation for 5 min and 6,000 × g and resuspended in sterile 1× phosphate-buffered saline (PBS) (pH 7.4); 1× PBS was made from a 10× stock (80 g NaCl, 2 g KCl, 26.8 g Na2 HPO4-7H2O, 2.4 g KH2PO4 in 1 L of deionized H2O) with 10 μM Alexa Fluor 594 C5 maleimide for microscopy or fluorescein-5-maleimide for fluorescence quenching and recovery assays and incubated in the dark at room temperature for 30 min on a shaking incubator at 37°C (200 rpm). Excess dye was quenched with 1 mM dithiothreitol (DTT) (Sigma) to stop the reaction. Cells were washed 3× with PBS. For fluorescence recovery assays, cells were incubated with 1× PBS plus 0.4% glucose at 37°C with shaking at 200 rpm. Glucose was prepared as a 20% stock (wt/vol) in 1× PBS and filter sterilized. Cells were spun down and washed 3× with 1× PBS and resuspended in 1× PBS for quenching assays and 1× PBS plus 0.4% glucose for fluorescence recovery assays.
For fluorescence quenching and recovery assays, cells were diluted to an OD600 of 0.1 for both types of assays, and 148 μL was added into wells of a 96-well black plate (Corning). Fluorescence was recorded for 5 min at 1-min intervals at 37°C (BioTek Neo; excitation, 494 nm; emission, 520 nm). After 5 min, 2 μL of each serial dilution for ferrioxamine-Fe^3+, ferrichrome-Fe^3+, and pyoverdine-Fe^3+ or DMSO for vehicle controls was added to each well. Fluorescence was recorded immediately for quenching assays and for 1 h at 1-min intervals for fluorescence recovery assays. Background fluorescence was subtracted from all fluorescence readings and 1-F/F0 was used to calculate the degree of quenching, where F0 is the initial fluorescence. Kd was calculated using GraphPad Prism using a one-site specific binding model or a two-site model. For fluorescence recovery assays, background was subtracted from all fluorescence readings and F/F0 expressed as a percent of control was plotted versus time.

“And” between values parts separate entries of the source, which are not always exact repeats. Equal values may be shown once. Read-outs that look alike come from different tables or passages of the source.

As for `CC(=O)N(O)CCCCCNC(=O)CCC(=O)N(O)CCCCCNC(=O)CCC(=O)N(O)CCCCCN` [ferrioxamine B], the “growth in the presence of siderophore” value in experiment [1] is reported as “inhibited”. The Kd in experiment [2] (read-out: Kd1 (converted)) was 0.178 µM and 0.17 µM; in experiment [2] (read-out: Kd2 (converted)), 660 µM and 600 µM.
